The values that follow come from patent publication EP1085812B1, “POTATO CYST NEMATODE CONTROLLING FACTORS AND THEIR USE IN AGRICULTURE” (priority 1998, dated 1999).

Where two headings read alike, the source gives them in different places.

Data set [1] deals with G. rostochiensis pathotype Ro-1. Briefly: Interaction of glycoalkaloid dilution series with PRL in hatching assay. The data set is classed as in vivo. Conditions: Fig. 9. The source says: To investigate these interactions further, the response of PCN hatch to a dilution series of single natural potato-produced HFs (the glycoalkaloids α-solanine and α-chaconine: Devine, K.J. et al. ((1996) supra) was studied in the presence and absence of a PRL preparation, the concentration of the latter being adjusted to that used in Figs. 4 and 5.
Logarithmic dilution series ([…]) of the glycoalkaloids α-chaconine and α-solanine (Sigma Chemical Co. Poole, UK) were each prepared either in water or PRL (1mg ml^-1). Hatching activity was determined in these dilution series, with PRL (1mg ml^-1) and water as controls.
At each glycoalkaloid concentration, the hatching activity of (glycoalkaloid only), (PRL only) and (glycolalkaloid + PRL) preparations was determined. The difference between the observed hatch (in the presence of (glycoalkaloid only), (PRL only) and (glycoalkaloid + PRL) and the expected hatch if the effects of the glycoalkaloid and PRL were additive, (i.e. (glycoalkaloid only)) + (PRL only) was determined at each concentration of glycoalkaloid. The results are depicted in Fig. 9.

The subject of a further data set is PCN. To be noted: in aqueous solutions or as a solid; cited from earlier work.
The conditions of data set [2]: cited from earlier work.

With `C[C@H]1CC[C@@H]2[C@@H](C)[C@H]3[C@H](C[C@H]4[C@@H]5CC=C6C[C@@H](O[C@@H]7O[C@H](CO)[C@H](O)[C@H](O[C@@H]8O[C@H](CO)[C@@H](O)[C@H](O)[C@H]8O)[C@H]7O[C@@H]7O[C@@H](C)[C@H](O)[C@@H](O)[C@H]7O)CC[C@]6(C)[C@H]5CC[C@]34C)N2C1` [α-solanine], the “effect on hatching activity of PRL” value is given as “markedly inhibited” in data set [1] (high concentrations of glycoalkaloid, dilution series in PRL (1mg ml^-1)) and “interacted synergistically” in data set [1] (lower concentrations of glycoalkaloid, over a range of four orders of magnitude).

With “trans-2-(2-,13-dihydroxy-9-methoxy-7,7,16-trimethyl-5,10,20-trioxo-19-oxahexacyclo [9.7.0.1^3,6.0^3,8.1^12,16]-eicosa-1(11),8-dien-15-yl) cyclopropropanecarboxylic acid [hatching agent]”, in the data set with PCN, the “concentration at which active” value is reported as 0.01 - 1000 mg/kg soil and the optimum concentration is given as 1 - 100 mg/kg soil. Also, the stability entry in data set [2] (pH below 2 and above 7) is given as “unstable”. Moreover, the stability entry in data set [2] (temperatures above about 35°C) is on record as “unstable”.
